What was measured:
[1] = Transport study across oral mucosa Transwell model, apical to basolateral, 240 min; settings: human
Method: (§1) As soon as cells reached confluency, cultivation was switched from submerged to airlift and 1% Human Keratinocytes Growth Supplements (HKGS, Gibco, Thermofisher, Vienna, Austria, S0015) was added to the cultivation media on the basolateral compartment. Media were changed every 2–3 days until the day of experiment on day 29. Cells from passage 14–36 were used for experiments. Transepithelial electric resistance (TEER) was measured on day of experiment, as described in detail previously.
(§2) Solutions were diluted to 10 µM (carboxyfluorescein) or 100 µM in DMEM on day of experiments.
(§3) First, TEER was measured in cultivation media on the day of experiment. Afterwards, cells and blanks were washed twice with DMEM on the apical (300 µL) and basolateral (900 µL) compartments and selected cells and blanks were treated with DMEM with or without 100 µM probenecid or verapamil on the apical and basolateral side at 37 °C for 30 min. […] To cells which were pre-incubated with probenecid or verapamil, 100 µM probenecid or verapamil was applied apically as well. DMSO content was adapted for cells with no inhibitors, and DMSO and dd-H2O content was adjusted in the basolateral compartment as well in order to apply the same vehicle concentrations on the apical and basolateral compartment. […] Subsequently, duplicates of apical sample were collected, and samples were frozen at −80 °C until further analysis with High-Performance Liquid Chromatography (HPLC).
(§4) Peaks were quantified using the software Chromeleon Version 7.2.6, and corresponding mili absorbance unit × time [mAU × min] values were used for data analysis.
(§5) Mean values of relative fluorescence unit (RFU) or detected area [mAU × min] were used for calculation. For the first timepoint, the clearance [µL] for the detected area was calculated as shown in the formula below (1a), with Abasot1 as the measured area [mAU × min] at the first time point of the basolateral sample, Vbaso as the basolateral volume [µL] and Astock as the area measured for the applied stock solution. […] Clearance [µL] for carboxyfluorescein was calculated with the same formulas using RFU. (1a) Clearance=Abasot1×Vbaso/AStock (1b) Clearancetn=Abasotn×Vbaso/AStock−∑(Abasotn−1 ×3− Abasot1 ×3)
(§6) Cleared volume [µL] was calculated by plotting the sum of clearance at all time points over time [min]. The resulting slope PS [µL/min] was calculated inversely. For calculation of the PScell, the inverse PS blanks were subtracted, as shown below in Formula (2). (2) 1/PScell=1/PSall−1/PSblank
(§7) The final permeability coefficient is calculated by dividing the inverse PScell by the area of the ThinCerts (0.336 cm^2) and multiplying by a conversion factor to give the permeability coefficient as µm/min.

[2] = system: oral mucosa epithelium in vitro model based on human cell line TR146; test: as above; settings: for Permeability coefficient without inflammation and inhibitor: Table S3; for increase of permeability coefficient with probenecid compared to no inhibitor / increase of permeability coefficient with verapamil compared to no inhibitor / cumulated concentration of NSAID in the basolateral compartment: 100 µM; for cumulated concentration of NSAID in the basolateral compartment: 4 h
Method: as §1, §2, §3, §4, §5, §6, §7

MRP4 (ABCC4) = settings: cited from earlier work
[3] = CXlogD at pH 7.4 ref https://ebi.ac.uk (02.04.2024); cited from earlier work
[4] = design: method as in PMID 15157608; settings: cited from earlier work
ECV304 cell monolayers = settings: cited from earlier work
TR146 cell layers [5] = test: Carboxyfluorescein permeability assay (2 h) after 48 h inflammation treatment; assay type: in vitro ADME, human
Method: The resulting slope PS [µL/min] was calculated inversely. […] (2) 1/PScell=1/PSall−1/PSblank
ThinCerts® were seeded with cells as described above. Stock solutions of tumour necrosis factor α (TNF-α, Sigma-Alrich, H8916, 10 µg), Interleukin-1ß (IL-1ß, PeproTech, 200-01B, 2 µg) and Interferon-γ (IFN-γ, PeproTech, Vienna, Austria, 300-02, 20 µg) were prepared with Dulbecco’s Phosphate Buffered Saline (DPBS, Thermo-Fisher Scientific, Vienna, Austria, 14190094) containing 0.1% bovine serum albumin (BSA, Roth, Graz, Austria, 8076.2) at a concentration of 10 µg/mL and stored at −20 °C until usage. Three days before the experiments, cell layers and blanks were washed twice on the basolateral compartment with 900 µL cultivation media (DMEM supplemented with 10% Fetal Calf Serum and 1% Penicillin/Streptomycin) to remove anti-inflammatory hydrocortisone residues (a component of media supplement HKGS) and were further cultivated in cultivation media.
Prior to treating cells with prepared DMEM solutions, TEER was measured in cultivation media DMEM supplemented with 1% Penicillin/Streptomycin and 10% Fetal Calf Serum. Subsequently, cell layers and blanks were washed with DMEM (without supplements) twice on the apical and basolateral compartment, followed by TEER measurements in DMEM. Media of cells were replaced with previously prepared DMEM solutions. Control media was applied on the blanks. After 48 h treatment at 37 °C, 5% CO2 and 95% humidity TEER was measured. Subsequently, 10 µM carboxyfluorescein was added to the apical DMEM solutions and incubated in the incubator at 37 °C for 2 h. Media were immediately collected and measured for the RFU content using the EnSpire as described above. Afterwards, media were stored at −20 °C until further usage. Two cell-grown ThinCerts^TM of each treatment were pooled as one sample with 350 µL lysis buffer supplemented with 1% ß-mercaptoethanol and stored at −80 °C for RNA isolation.

TR146 cell layers [6] = settings: human, not told, 4 h
[7] = Transport study across blank inserts without cells; settings: mean ± SD
Method: as §3, §5, §6

COX-2 [8] = system: COX-2; design: method as in PMID 16678543; settings: 48 h post-surgery, compared to the placebo group ref 62; cited from earlier work
COX-2 [9] = system: COX-2; design: method as in PMID 10866999; settings: human cell lines ref 59; cited from earlier work
[10] = Piroxicam study, w/o Inhibitor, mean ± SD
[11] = with 100 µM probenecid, mean ± SEM
[12] = with 100 µM verapamil, mean ± SEM
[13] = without inhibitor, 100 µM apical (CF 10 µM), mean ± SEM
[14] = Diclofenac study, w/o Inhibitor, mean ± SD
[15] = Celexocib study, Probenecid, mean ± SD
[16] = Celexocib study, Verapamil, mean ± SD
[17] = Celexocib study, w/o Inhibitor, mean ± SD
[18] = Diclofenac study, Probenecid, mean ± SD
[19] = Diclofenac study, Verapamil, mean ± SD
[20] = Ibuprofen study, Probenecid, mean ± SD
[21] = Ibuprofen study, Verapamil, mean ± SD
[22] = Ibuprofen study, w/o Inhibitor, mean ± SD
[23] = Piroxicam study, Probenecid, mean ± SD
[24] = Piroxicam study, Verapamil, mean ± SD

CN1C(C(=O)Nc2ccccn2)=C(O)c2ccccc2S1(=O)=O [piroxicam]
Papp A→B at 240 min ([1]; PC (permeability of cell), Piroxicam study, w/o Inhibitor, mean ± SD): 8.1 ×10⁻⁶ cm/s | Papp A→B at 240 min ([1]; with probenecid 100 µM, PC (permeability of cell), Piroxicam study, Probenecid, mean ± SD): 9.68 ×10⁻⁶ cm/s | Papp A→B at 240 min ([1]; with probenecid 100 µM, PE (permeability of cell + blank), Piroxicam study, Probenecid, mean ± SD): 4.52 ×10⁻⁶ cm/s | Papp A→B at 240 min ([1]; with verapamil 100 µM, PC (permeability of cell), Piroxicam study, Verapamil, mean ± SD): 10 ×10⁻⁶ cm/s | Papp A→B at 240 min ([1]; with verapamil 100 µM, PE (permeability of cell + blank), Piroxicam study, Verapamil, mean ± SD): 5.12 ×10⁻⁶ cm/s | PE (permeability of cell + blank) [2, 10]: 2.44 ± 0.76 µm/min | Permeability coefficient without inflammation and inhibitor ([2]; mean ± SD): 4.86 ± 2.41 µm/min | increase of permeability coefficient with probenecid compared to no inhibitor ([2]; human, 240 min): 1.19 fold | increase of permeability coefficient with verapamil compared to no inhibitor ([2]; human, 240 min): 1.23 fold | cumulated concentration of NSAID in the basolateral compartment ([2]; human): 0.055 ± 0.016 nmol/mm^2 | permeability coefficient [2, 11]: 5.81 ± 0.61 µm/min | permeability coefficient [2, 12]: 6.00 ± 0.70 µm/min | permeability coefficient [2, 13]: 4.86 ± 0.84 µm/min | inhibitory effect on MRP4 function (MRP4 (ABCC4)): weaker in comparison to ibuprofen

O=C(O)Cc1ccccc1Nc1c(Cl)cccc1Cl [diclofenac]
Papp A→B at 240 min ([1]; PC (permeability of cell)): 11.1 ×10⁻⁶ cm/s | Papp A→B at 240 min ([1]; PE (permeability of cell + blank)): 3.43 ×10⁻⁶ cm/s | PE (permeability of cell + blank) [2, 14]: 2.11 ± 0.22 µm/min | Permeability coefficient without inflammation and inhibitor ([2]; mean ± SD): 3.64 ± 0.84 µm/min | PE (permeability of cell + blank) ([2]; human, 240 min): 2.98 ± 1.37 µm/min | increase of permeability coefficient with probenecid compared to no inhibitor ([2]; human, 240 min): 1.83 fold | cumulated concentration of NSAID in the basolateral compartment ([2]; human): 0.043 ± 0.0046 nmol/mm^2 | permeability coefficient [2, 11]: 6.66 ± 1.87 µm/min | permeability coefficient [2, 12]: 3.54 ± 0.38 µm/min | permeability coefficient [2, 13]: 3.64 ± 0.34 µm/min | XlogD [3]: 1.1

C[C@]12CCC(=O)C=C1CC[C@@H]1[C@@H]2[C@@H](O)C[C@@]2(C)[C@H]1CC[C@]2(O)C(=O)CO [hydrocortisone]
biological half-life [4]: 8–12 h

carboxyfluorescein [CF]
permeability coefficient ([2]; human, 240 min): 4.63 ± 0.24 µm/min | permeability coefficient across ECV304 cell monolayers (ECV304 cell monolayers): ~ 5 µm/min | permeability coefficient for CF (TR146 cell layers [5]; across cells treated with cytokines 48 h, two hours): 16.16 ± 13.05 µm/min | permeability coefficient for CF (TR146 cell layers [5]; across cells treated with cytokines with ibuprofen 48 h, two hours): 16.75 ± 9.76 µm/min | permeability coefficient for CF (TR146 cell layers [5]; across cells treated with ibuprofen 48 h, two hours): 12.83 ± 3.57 µm/min | permeability coefficient for CF (TR146 cell layers [5]; across control cells, two hours after 48 h): 12.41 ± 5.15 µm/min | permeability coefficient (TR146 cell layers [6]): 14.26 ± 7.14 µm/min

CN1C(=O)CN=C(c2ccccc2)c2cc(Cl)ccc21 [diazepam]
PS all (cell + blank) [2, 15]: 0.14 ± 0.004 µL/min | PS cell [2, 15]: 0.46 ± 0.04 µL/min | PS all (cell + blank) [2, 16]: 0.09 ± 0.05 µL/min | PS cell [2, 16]: 0.41 ± 0.35 µL/min | PS all (cell + blank) [2, 17]: 0.11 ± 0.02 µL/min | PS cell [2, 17]: 0.38 ± 0.19 µL/min | PS all (cell + blank) [2, 18]: 0.12 ± 0.01 µL/min | PS cell [2, 18]: 0.57 ± 0.21 µL/min | PS all (cell + blank) [2, 19]: 0.1 ± 0.03 µL/min | PS cell [2, 19]: 0.68 ± 0.69 µL/min | PS all (cell + blank) [2, 14]: 0.11 ± 0.03 µL/min | PS cell [2, 14]: 0.44 ± 0.35 µL/min | PS all (cell + blank) [2, 20]: 0.09 ± 0.02 µL/min | PS cell [2, 20]: 0.29 ± 0.16 µL/min | PS all (cell + blank) [2, 21]: 0.08 ± 0.02 µL/min | PS cell [2, 21]: 0.39 ± 0.35 µL/min | PS all (cell + blank) [2, 22]: 0.12 ± 0.02 µL/min | PS cell [2, 22]: 0.31 ± 0.08 µL/min | PS all (cell + blank) [2, 23]: 0.1 ± 0.01 µL/min | PS cell [2, 23]: 0.32 ± 0.14 µL/min | PS all (cell + blank) [2, 24]: 0.05 ± 0.03 µL/min | PS cell [2, 24]: 0.24 ± 0.36 µL/min | PS all (cell + blank) [2, 10]: 0.12 ± 0.04 µL/min | PS cell [2, 10]: 0.45 ± 0.24 µL/min | PS blank ([7]; Diclofenac study, Probenecid): 0.15 ± 0.03 µL/min | PS blank ([7]; Diclofenac study, Verapamil): 0.13 ± 0.03 µL/min | PS blank ([7]; Diclofenac study, w/o Inhibitor): 0.17 ± 0.01 µL/min | PS blank ([7]; Ibuprofen study, Probenecid): 0.14 ± 0.01 µL/min | PS blank ([7]; Ibuprofen study, Verapamil): 0.12 ± 0.06 µL/min | PS blank ([7]; Ibuprofen study, w/o Inhibitor): 0.21 ± 0.03 µL/min | PS blank ([7]; Piroxicam study, Probenecid): 0.12 ± 0.03 µL/min | PS blank ([7]; Piroxicam study, Verapamil): 0.09 ± 0.02 µL/min | PS blank ([7]; Piroxicam study, w/o Inhibitor): 0.19 ± 0.02 µL/min | PS blank ([7]; study, Probenecid): 0.20 ± 0.004 µL/min | PS blank ([7]; study, Verapamil): 0.13 ± 0.05 µL/min | PS blank ([7]; study, w/o Inhibitor): 0.18 ± 0.003 µL/min

CS(=O)(=O)c1ccc(C2=C(c3ccccc3)C(=O)OC2)cc1 [rofecoxib]
COX-2 expression in the oral mucosa (COX-2 [8]): induced COX-2 expression

Cc1ccc(-c2cc(C(F)(F)F)nn2-c2ccc(S(N)(=O)=O)cc2)cc1 [celecoxib]
Papp A→B at 240 min ([1]; PC (permeability of cell), Celexocib study, w/o Inhibitor, mean ± SD): 0.733 ×10⁻⁶ cm/s | Papp A→B at 240 min ([1]; with probenecid 100 µM, PC (permeability of cell), Celexocib study, Probenecid, mean ± SD): 10.1 ×10⁻⁶ cm/s | Papp A→B at 240 min ([1]; with probenecid 100 µM, PE (permeability of cell + blank), Celexocib study, Probenecid, mean ± SD): 2.72 ×10⁻⁶ cm/s | Papp A→B at 240 min, 100 µM ([1]; with probenecid 100 µM, permeability coefficient, with 100 µM probenecid, mean ± SEM): 21.2 ×10⁻⁶ cm/s | Papp A→B at 240 min ([1]; with verapamil 100 µM, PC (permeability of cell), Celexocib study, Verapamil, mean ± SD): 3.5 ×10⁻⁶ cm/s | PE (permeability of cell + blank) [2, 17]: 0.36 ± 0.15 µm/min | Permeability coefficient without inflammation and inhibitor ([2]; mean ± SD): 0.44 ± 0.19 µm/min | increase of permeability coefficient with probenecid compared to no inhibitor ([2]; human, 240 min): 13.63 fold | increase of permeability coefficient with verapamil compared to no inhibitor ([2]; human, 240 min): 4.72 fold | cumulated concentration of NSAID in the basolateral compartment ([2]; human): 0.0071 ± 0.00032 nmol/mm^2 | permeability coefficient [2, 12]: 2.10 ± 0.92 µm/min | permeability coefficient [2, 13]: 0.44 ± 0.10 µm/min | inhibitory effect on MRP4 function (MRP4 (ABCC4)): weaker in comparison to ibuprofen | XlogD [3]: 4.01

O=C(O)c1ccccc1Nc1cccc(C(F)(F)F)c1 [flufenamic acid]
COX-2 expression (COX-2 [9]): NF-κB-independent upregulation of COX-2

— article PMC11054638, “Transport of Non-Steroidal Anti-Inflammatory Drugs across an Oral Mucosa Epithelium In Vitro Model” (Pharmaceutics, 2024)
